Measurements: US20240091169A1, “POL[…] FOR TREATING INFLAMMATORY DISEASES” (UNIVERSITY OF SOUTH CAROLINA, priority 2022, published 2024)

Tests used:
C26 CRC cells = assay: CCK-8 cell viability of C26 CRC cells; assay type: cell-based; conditions: 24 hr, read-out: IC50, anti-proliferative activity against C26 CRC cells
Experimental: BMDMs were isolated as described above. On day 6 of maturation, BMDMs were subjected to 7 concentrations of PA to assess cell death: 0.001, 0.01, 0.1, 1.0, 5.0, 10.0, and 100.0 μM. On day 7 (i.e., 24 hr-post PA treatment), CCK-8 (Dojindo; Cat #CK04) assays were completed per manufacturer's instructions. C26 CRC cells were also subjected to these 7 concentrations of PA for 24 hr to assess cell death using CCK-8. Three independent experiments were carried out.

AOM/DSS-induced CRC = assay: AOM/DSS mouse model of colorectal cancer (CRC); assay type: in vivo, C57BL/6 mice
[1] = females, males, and sexes combined, vs VEH, p≤0.05
[2] = proximal colon (tumors intact) RT-qPCR, vs VEH, p≤0.05
[3] = proximal colon RT-qPCR, vs VEH, p≤0.05
[4] = proximal colon qRT-PCR, vs VEH, p≤0.05
[5] = removed tumors RT-PCR, vs VEH, p≤0.05

SMILES: C=CC(O)C#CC#CC/C=C\CCCCCCC (stereo in doubt) [PA, 3(R)-(9Z)-heptadeca-1,9-dien-4,6-diyn-3-ol]
- IC50 (C26 CRC cells): 1 µM
- survival (AOM/DSS-induced CRC; 2.5 mg/kg p.o. 3x/week, 12 weeks, vs AOM/DSS+VEH, FIG. 1B): appears to improve survival, although non-significant
- goblet cells per crypt (AOM/DSS-induced CRC; Alcian Blue, distal colon, no difference between CF and PA): completely rescued
- Foxp3 gene expression in tumors (AOM/DSS-induced CRC; RT-qPCR, vs VEH, p≤0.05): decrease
- colonoscopy score: focal lesions (AOM/DSS-induced CRC; after 12 weeks, vs VEH): no significant difference
- colonoscopy score: perianal findings (AOM/DSS-induced CRC; after 12 weeks, vs VEH, p=0.08): no significant difference
- colonoscopy score: inflammation (AOM/DSS-induced CRC; after 12 weeks, vs VEH, p≤0.05): significant reductions
- colonoscopy score: intestinal bleeding (AOM/DSS-induced CRC; after 12 weeks, vs VEH, p≤0.05): significant reductions
- colonoscopy score: transparency of the colonic wall (AOM/DSS-induced CRC; after 12 weeks, vs VEH, p≤0.05): significant reduction (i.e., improvement)
- colonoscopy tumor score (AOM/DSS-induced CRC; after 12 weeks, vs VEH, p≤0.05): significantly reduced
- abundance of CD11b+CD68+ macrophages in colonic lamina propria (AOM/DSS-induced CRC; colons with tumors intact, flow cytometry, vs VEH, p≤0.05): significantly decreased
- submucosal invasion and destruction of the crypts (H&E) (AOM/DSS-induced CRC; distal colon, vs VEH): did not appear as severe
- large tumors (>2 mm) (AOM/DSS-induced CRC; females and sexes combined, vs VEH, p≤0.05): significant reduction
- number of medium sized tumors (1-2 mm) (AOM/DSS-induced CRC; [1]): significantly reduced
- total number of tumors (AOM/DSS-induced CRC; [1]): significantly reduced
- abundance of neutrophils in the colon (AOM/DSS-induced CRC; flow cytometry, n=2-3/group, statistics not performed): appeared to protect against the increased abundance
- relative abundance of macrophages in colons following tumor removal (AOM/DSS-induced CRC; flow cytometry, increase with VEH vs CF, p≤0.05): ameliorated
- F4/80 immunofluorescence staining in colonic tumors (AOM/DSS-induced CRC; pan macrophage marker, n=3/group): reduction in macrophages
- CD68 gene expression (AOM/DSS-induced CRC; [2]): significantly suppressed
- MSR-1 gene expression (AOM/DSS-induced CRC; [2]): significantly suppressed
- mannose receptor C type 1 (Mrc1) gene expression (AOM/DSS-induced CRC; [2]): significantly suppressed
- IL-1β gene expression (AOM/DSS-induced CRC; [3]): significant downregulation
- IL-6 gene expression (AOM/DSS-induced CRC; [3]): significant downregulation
- IL-10 gene expression (AOM/DSS-induced CRC; [3]): significantly downregulated
- IL-13 gene expression (AOM/DSS-induced CRC; [3]): significantly downregulated
- TGF-β1 gene expression (AOM/DSS-induced CRC; [3]): significantly downregulated
- neutrophil marker Ly6g gene expression (AOM/DSS-induced CRC; [3]): significantly downregulated
- Muc1 gene expression (AOM/DSS-induced CRC; proximal colon qRT-PCR, vs VEH, p=0.08): slightly but non-significantly reduced
- Muc2 gene expression (AOM/DSS-induced CRC; [4]): significantly increased
- occludin (OCLN) gene expression (AOM/DSS-induced CRC; [4]): upregulated
- tight junction protein 3 (TJP3) gene expression (AOM/DSS-induced CRC; [4]): upregulated
- gene expression of pro-apoptotic marker Bax in colonic tumors (AOM/DSS-induced CRC; qRT-PCR, vs VEH, p=0.09): increased, although non-significant
- TGF-01 gene expression in tumors (AOM/DSS-induced CRC; removed tumors RT-PCR, vs VEH, p=0.08): suppressed
- CD68 gene expression in tumors (AOM/DSS-induced CRC; [5]): significantly suppressed
- IL-6 gene expression in tumors (AOM/DSS-induced CRC; [5]): suppressed
- IL-13 gene expression in tumors (AOM/DSS-induced CRC; [5]): suppressed
- small tumors (≤1 mm) (AOM/DSS-induced CRC; sexes combined, reduction observed, p=0.08): did not reach statistical significance
- colonic TCRβ+FoxP3+ T-regs (AOM/DSS-induced CRC; tumor-removed colons, flow cytometry, between VEH and PA): no difference
- percentage of Ki67 positive cells in colonic tumors (AOM/DSS-induced CRC; vs VEH, p≤0.05): significant decreased
- percentage of apoptotic cells (TUNEL) in colonic tumors (AOM/DSS-induced CRC; vs VEH, p≤0.05): significant increase
- overall symptom score (bodyweight loss, stool consistency, rectal bleeding) (AOM/DSS-induced CRC; weeks 1-3, 5-7 and 10-12, vs VEH, FIG. 1C): significantly suppressed
- circulating lymphocytes (AOM/DSS-induced CRC; whole blood, end of study, PA vs VEH): no difference between VEH- and PA-treated groups
- total WBCs (AOM/DSS-induced CRC; whole blood, end of study, across groups): no change
- circulating monocytes (AOM/DSS-induced CRC; whole blood, end of study, increase with VEH vs CF, p≤0.05): rescued
- neutrophil to lymphocyte ratio (NLR) (AOM/DSS-induced CRC; whole blood, end of study, p≤0.05): decrease
- circulating neutrophils (AOM/DSS-induced CRC; whole blood, end of study, vs VEH, p≤0.05): ameliorate the significant increase
